Laboratory results: a melting point compilation (Tetko et al.)

Row | SMILES | melting point [°C]
1 | CCC(C)(C)c1ccc(C(=O)O)cc1 | 103 to 105
2 | O=C(Nc1nccs1)C1CCNCC1 | 196 to 198
3 | O=C(O)CCc1nc2ccccc2n1-c1ccccc1 | 232 to 234
4 | O=Cc1ccc(-c2ccncc2)cc1F | 107 to 109
5 | CC(Nc1nc2ccccc2s1)C(=O)O (stereo not drawn) | 259 to 261
6 | Cc1nc(Cl)ccc1CC(=O)O | 134 to 136
7 | Nc1ccccc1S(=O)(=O)N1CCOCC1 | 114 to 116
8 | NNc1ccc(S(=O)(=O)Nc2ccccc2)cc1[N+](=O)[O-] | 207 to 209
9 | Cn1cc(S(=O)(=O)N2CCOCC2)cc1C(=O)O | 245 to 247
10 | Brc1ccc2c(c1)CCCCN2 | 52 to 54
11 | CC(Cl)c1nnc(-c2ccc([N+](=O)[O-])cc2)o1 (stereo not drawn) | 161 to 163
12 | CC(N)c1ccc(-n2cccn2)cc1 (stereo not drawn) | 48 to 50
13 | O=C(CCl)Nc1ccc(Cl)cn1 | 142 to 144
14 | NC(=O)C1CC2CCCCC2N1 (stereo not drawn) | 123 to 125
15 | NCc1cccnc1N1CCOCC1 | 41 to 43
16 | O=C(O)C(Cc1ccccc1)N1CCCOC1=O (stereo not drawn) | 163 to 165
17 | O=C(O)C1CCc2cn[nH]c2C1 (stereo not drawn) | 234 to 236
18 | O=C(O)c1cccc(Sc2cccc(Br)c2)n1 | 113 to 115
19 | CC(=Cc1cccc(Cl)c1)C(=O)O | 99 to 101
20 | Cn1ncc2ccc(C#N)cc21 | 104 to 106
21 | CC(C)CCNS(=O)(=O)c1ccc(N)cc1 | 119 to 121
22 | C=CCc1cc(C(=O)O)cc(OC)c1OC | 124 to 126
23 | COc1cc(I)c(C(=O)O)cc1OC | 200 to 202
24 | O=C1C=CC=NC1=C(O)Nc1cnccn1 | 156 to 158

Row | SMILES | melting point [°C]
25 | CC(C)NC(=O)NC(C)C | 191 to 193
26 | COc1cc(C(=O)O)c(N)cc1OC(F)F | 152 to 154
27 | CCNC(=O)c1ccc(NC2CCOCC2)c(C)c1 | 195 to 197
28 | CC(C)c1nn(-c2ccccc2)c(Cl)c1C=O | 53 to 55
29 | Cc1cc(Br)ccc1C(=O)N1CCCC(C(=O)O)C1 (stereo not drawn) | 123 to 125
30 | O=Cc1cc(-c2ccccc2)cs1 | 63 to 65
31 | Cc1ccccc1NCC(=O)N1CCCCC1 | 78 to 80
32 | Cc1cc(-c2cc(C(=O)O)c3c(C)noc3n2)c(C)o1 | 266 to 268
33 | O=C(O)CCOc1ccccc1Br | 111 to 113
34 | O=C(O)C1Cc2ccccc2N1 (stereo not drawn) | 168 to 170
35 | O=C(O)C1(c2cccc(F)c2)CCCCC1 | 135 to 137
36 | O=C(CCl)NCCCc1ccccc1 | 76 to 79
37 | Cn1cc(C(N)=O)cc1C(=O)O | 223 to 225
38 | COc1ccc(NS(=O)(=O)c2ccc(O)c(N)c2)cc1 | 213 to 215
39 | Cc1nn(-c2ccccc2)c(Cl)c1CCl | 35 to 41
40 | Cc1cc(C(=O)NCC(=O)O)c(C)o1 | 179 to 181
41 | Cc1cc(C(=O)O)n2nc(C)cc2n1 | 189 to 191
42 | OCc1nnc(Cl)s1 | 51 to 53
43 | Cc1c(Cl)cccc1-n1ccnc1SCC(=O)O | 144 to 146
44 | NC(=O)c1sc2nc(C3CC3)cc(-c3ccccc3)c2c1N | 185 to 187
45 | CC(NC(=O)OC(C)(C)C)C(=O)Cc1ccccc1 (stereo not drawn) | 59 to 61
46 | CN(CCCNC(=O)CCl)S(C)(=O)=O | 79 to 81
47 | O=C(CC1CCOCC1)c1ccccc1 | 60 to 62
48 | Nc1ccccc1NCCCn1ccnc1 | 160 to 162

Row | SMILES | melting point [°C]
49 | CC(=CC(=O)O)c1ccccc1OC(F)F | 69 to 71
50 | Cc1ccc(S(=O)(=O)NC(C)(C)C)cc1N | 124 to 126
51 | COc1cccc(-n2c(S)nc(O)cc2=O)c1 | 197 to 199
52 | Cc1nc2sc3c(c2c(=O)n1N)CCCCC3 | 199 to 201
53 | CC1CC1c1ccc(/C=C/C(=O)O)o1 (stereo not drawn) | 73 to 75
54 | CCOC(=O)c1sc(N)c(C(=O)OC(C)(C)C)c1C | 90 to 92
55 | C=CC(=O)Nc1cc(F)cc(F)c1 | 155 to 157
56 | O=C1NCCN2CCCC12 (stereo not drawn) | 73 to 75
57 | N#Cc1cccc(-n2cccn2)c1 | 61 to 63
58 | CC(C)C(=O)N1CCCC(C(=O)O)C1 (stereo not drawn) | 131 to 133
59 | O=C(CCCl)NC(=O)NCc1ccccc1 | 117 to 119
60 | CCc1n[nH]c(=O)c(C(=O)O)c1CC | 154 to 156
61 | CCN(CC)c1ccc(C(=O)O)cn1 | 154 to 156
62 | O=C(O)c1ccc2c(c1)C(=O)NC2=O | 267 to 269
63 | Sc1nnc(-c2ccccc2)n1Cc1ccc2c(c1)OCO2 | 118 to 120
64 | O=C(O)c1ccc(CNC(=O)C23CC4CC(CC(C4)C2)C3)cc1 | 195 to 197
65 | Cc1ccccc1NC(=O)NN | 141 to 143
66 | O=C(O)c1sccc1-c1ccc(F)cc1 | 199 to 201
67 | OC1CCSc2ccccc21 (stereo not drawn) | 67 to 69
68 | O=S(=O)(Nc1cccc(O)c1)c1ccccc1 | 127 to 129
69 | O=c1[nH]c2c(s1)CCC2 | 142 to 144
70 | O=C(O)C1(c2cccc(Cl)c2)CCCC1 | 150 to 152
71 | Cc1ccc(CCC(=O)NCC(=O)O)cc1 | 118 to 120
72 | CCOC(=O)c1cc(C2CC2)nc2onc(C(C)C)c12 | 48 to 50

Row | SMILES | melting point [°C]
73 | O=C(O)Cn1ccc(=O)[nH]c1=O | 279 to 281
74 | CCOC(=O)COc1cccc(C(=O)O)c1 | 119 to 121
75 | CC(C)(C)OC(=O)Nc1snnc1C(=O)O | 139 to 141
76 | NC(=O)C1CCCO1 (stereo not drawn) | 76 to 78
77 | O=C(O)CNS(=O)(=O)c1ccc(F)c(F)c1F | 175 to 177
78 | Sc1nnc(-c2ccncc2)[nH]1 | 308 to 313
79 | Cc1cc(O)cc(=O)o1 | 188 to 190
80 | NC(=O)c1ccc(N)cc1Cl | 163 to 165
81 | O=C(O)c1ccc([N+](=O)[O-])[nH]1 | 162 to 164
82 | Cc1cc(C(=O)CCl)c(C)n1-c1ccc(S(N)(=O)=O)cc1 | 241 to 243
83 | NC(=S)N1CCc2sccc2C1 | 109 to 111
84 | Clc1ccc2c(n1)CCC2 | 69 to 71
85 | CNc1cn[nH]c(=O)c1 | 279 to 281
86 | O=C(O)CN1CCC(CO)CC1 | 202 to 204
87 | CN1C(=O)CNC(=O)c2ccccc21 | 175 to 177
88 | CC(C)(C)NS(=O)(=O)Cc1cccc(C(=O)O)c1 | 199 to 201
89 | Nc1ccc(Oc2ccc(C(F)(F)F)cn2)c(F)c1 | 90 to 92
90 | Sc1nnc(C2CC2)o1 | 131 to 133
91 | CCC(=O)c1ccc(C(=O)O)cc1 | 178 to 180
92 | COc1ccc(Cl)cc1-c1cc(N)[nH]n1 | 126 to 128
93 | COCC(C)C(N)=S (stereo not drawn) | 42 to 44
94 | CCOc1ccccc1C(N)=S | 115 to 117
95 | O=C(O)C1CCCN(S(=O)(=O)c2ccc([N+](=O)[O-])cc2)C1 (stereo not drawn) | 221 to 223
96 | CCCc1ccc(C(=O)CCl)cc1 | 30 to 32

Row | SMILES | melting point [°C]
97 | CN(CC(=O)O)c1ncnc2nc[nH]c12 | 237 to 239
98 | CN1CC(=O)N(CC(=O)O)C1=O | 139 to 141
99 | O=C(O)CCNc1ccccn1 | 169 to 171
100 | Cc1c(C(=O)O)cc([N+](=O)[O-])c(C)c1[N+](=O)[O-] | 201 to 203
101 | CC(C)CN1CC(C(=O)O)CC1=O (stereo not drawn) | 83 to 85
102 | Cn1cc(C=O)c(-c2ccncc2)n1 | 131 to 133
103 | O=[N+]([O-])c1ccc(Cl)cc1CBr | 61 to 63
104 | O=C(O)c1ccc(-c2ccccc2OC(F)(F)F)cc1F | 150 to 152
105 | CCOC(=O)C1CC1c1ccc(OC)cc1 (stereo not drawn) | 78 to 80
106 | Cc1ccc(C(=O)C(Cl)c2ccc(C)cc2)cc1 (stereo not drawn) | 67 to 69
107 | O=C(O)CN1C(=O)COc2ccccc21 | 229 to 231
108 | NCCCS(=O)(=O)Cc1ccccc1 | 63 to 65
109 | Nc1ccc(O)c(S(N)(=O)=O)c1 | 169 to 171
110 | Cc1nc(C)c2c(C)c(C(=O)O)sc2n1 | 347 to 349
111 | CN1Cc2cc(Br)ccc2NC1=O | 209 to 211
112 | NNc1cc(C(F)(F)F)nc(-c2ccccn2)n1 | 169 to 171
113 | Cc1sc2nc(S)n(C(C)C)c(=O)c2c1C | 270 to 272
114 | Oc1ccc(OCC(F)(F)F)cc1 | 60 to 62
115 | O=C(O)c1cc(=O)n(Cc2ccccc2)c2ccccc12 | 215 to 217
116 | CCOC(=O)c1cnn2c(C(=O)OCC)c(CCCO)cnc12 | 70 to 72
117 | Nc1ccc(N2CCNC(=O)C2)nc1 | 136 to 138
118 | NC1(C(=O)O)CCOc2ccccc21 (stereo not drawn) | 239 to 241
119 | O=Cc1cccc(Br)c1O | 51 to 55
120 | CS(=O)(=O)Cc1ccc(N)cc1 | 159 to 161

Row | SMILES | melting point [°C]
121 | Cc1ccc(C)c(Sc2ncccc2C(=O)O)c1 | 188 to 190
122 | Cc1cc(N)ccc1N1CCSCC1 | 67 to 69
123 | Cc1ccc(C(=O)O)cc1S(=O)(=O)NC1CCCC1 | 185 to 187
124 | COc1cc(C)ccc1Oc1ccc(F)cc1N | 60 to 62
125 | O=C(O)CCc1nc2cc(C(F)(F)F)ccc2n(Cc2ccccc2)c1=O | 171 to 173
126 | Cn1nc(Br)c(=O)n(C)c1=O | 95 to 97
127 | Cn1cnc([N+](=O)[O-])c1Oc1ccc(Br)cc1 | 129 to 131
128 | O=C(O)C(Cc1c[nH]c2ccccc12)NS(=O)(=O)c1ccc(Cl)c(C(F)(F)F)c1 (stereo not drawn) | 185 to 187
129 | Cc1cc(S(N)(=O)=O)cc(N)c1C | 159 to 161
130 | CC(C)(C)OC(=O)N1CCc2cc(N)ccc21 | 84 to 86
131 | Sc1nnc2n(-c3ccccc3)c(-c3ccccc3)nn12 | 237 to 239
132 | Cc1cc(-c2nc3cc(F)ccc3n2C)ccc1N | 174 to 176
133 | OC1CCCCC1c1ccc(F)cc1 (stereo not drawn) | 71 to 73
134 | N#Cc1cccc(OCC(=O)O)c1 | 123 to 125
135 | O=C1Nc2cc(OC(F)(F)F)ccc2C1=O | 183 to 185
136 | O=C(O)c1ccc(F)cc1S | 171 to 173
137 | Sc1nnnn1-c1ccccc1 | 145 to 147
138 | O=C(O)c1cccnc1Oc1ccccc1Br | 166 to 168
139 | C=CCNC(=O)c1cccc(C#N)c1 | 79 to 81
140 | Cc1c(C(=O)O)nnn1-c1ccc2c(c1)OCCO2 | 189 to 191
141 | NS(=O)(=O)c1ccc(O)c(C(=O)O)c1 | 233 to 235
142 | C=CCn1c(C)cc(C(=O)CCl)c1C | 36 to 40
143 | CCOc1cc(C(=O)O)cc(-c2ccccc2)c1OC | 161 to 163
